Numbering of substitutions follows the chain as printed. Like-named read-outs stand apart in the source and are kept apart here.

In one assay the target is T1, human M1 (Homo sapiens, UniProt P11229).
T1 construct: expressed in transfected cells; host or cells: CHO cells
T1 sequence (P11229 1-460): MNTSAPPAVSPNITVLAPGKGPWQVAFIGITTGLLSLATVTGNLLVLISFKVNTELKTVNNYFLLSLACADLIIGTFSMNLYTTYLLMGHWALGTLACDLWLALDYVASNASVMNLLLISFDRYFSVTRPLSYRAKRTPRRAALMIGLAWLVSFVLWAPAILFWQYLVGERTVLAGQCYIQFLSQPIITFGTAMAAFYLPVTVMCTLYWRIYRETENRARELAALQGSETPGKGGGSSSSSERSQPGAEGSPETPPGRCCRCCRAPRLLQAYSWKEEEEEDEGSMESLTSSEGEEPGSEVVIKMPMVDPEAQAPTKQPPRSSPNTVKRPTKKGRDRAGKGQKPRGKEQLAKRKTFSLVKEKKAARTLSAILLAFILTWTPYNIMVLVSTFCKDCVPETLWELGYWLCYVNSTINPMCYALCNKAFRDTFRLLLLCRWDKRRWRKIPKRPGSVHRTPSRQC
Kind of assay: M1 PAM assay (FLIPR intracellular calcium, CHO human M1). In kind it is cell-based. As for the experimental part:
The assay study the effect of several concentrations of test compounds on basal or acetylcholine-stimulated Ca^2+ levels using FLIPR. CHO human M1 are plated the day before the experiments at 2×10^5 cells/ml in PDL BioCoat 96 well black/clear plate (Becton 35 4640). The cells are grown at 37° C. and 5% CO2 in the following medium: F12 Nut Mix (Gibco 21765), 10% FCS heat inactivated (GIBCO 16000-044), 1% Pen Strep (Gibco, 15140) and 200 μg/ml Geneticin (Gibco 11811). On the day of the experiment, the medium was removed and replaced by 100 μl of dye loading buffer containing Hanks Balanced Salt solution (HBSS, 14065-049, Gibco) with 20 mM HEPES (Gibco 15630-056), 2 mM Probenicid (Sigma P8761), […] (Molecular Probes F-14202), 10% Pluronic acid Molecular Probes P-3000) pH=7.4 and incubated at 37° C. After 60 minutes extracellular dye was removed and the cells were washed five times with FLIPR buffer containing HBSS (Gibco 14065-049) with 20 mM HEPES (Gibco, 15630-056), 2 mM Probenicid (Sigma P8761) pre-warmed at 37° C. using and Ebml cell washer leaving 100 μl of FLIPR buffer in each well. The cell plate and the diluted compounds (1% DMSO final concentration) are placed on the platform of the FLIPR and the door closed. A signal test to check background fluorescence and basal fluorescence signal is performed. Laser intensity is adjusted if necessary. Two minutes preincubation with the diluted test compounds is provide to determine any agonist activity on the M1 receptor by comparison to 30 nM Acetylcholine control. In order to determine any modulator activity the diluted compounds were added to cells and after two minutes preincubation, the EC20 of acetylcholine is added followed by another two minutes preincubation before the measurement of intracellular Ca^2+ with a FLIPR (Molecular Devices).

A further assay addresses T2, M1 receptor (Rattus norvegicus, UniProt P08482).
T2 construct: expressed in transfected cells
T2 sequence (P08482 1-460): T1 sequence (P11229 1-460) with A5V, T254S, P309S, R320K, A337G, I413V
In words: M1 PAM assay (FLIPR intracellular calcium), rat. Format: cell-based.

The mark [1] stands for this setting: human M1 in CHO cells, modulator activity with EC20 of acetylcholine, FLIPR Ca2+, read-out: EC50 h PAM.
Setting [2] is: rat, modulator activity with EC20 of acetylcholine, FLIPR Ca2+, read-out: EC50 rat PAM.

Take `Cn1cc(-c2ccc(Cn3cc(C(=O)N[C@H]4CCCC[C@@H]4F)c4ncccc43)c(F)c2)cn1` (racemic) [Example 58, 1-(2-fluoro-4-(1-methyl-1H-pyrazol-4-yl)benzyl)-N-((1SR,2SR)-2-fluorocyclohexyl)-1H-pyrrolo[3,2-b]pyridine-3-carboxamide]: the EC50 came out at 239 nM on human M1 (setting [1]) and 453 nM at M1 receptor (setting [2]).
With `Cn1cc(-c2ccc(Cn3cc(C(=O)N[C@H]4CCOC[C@@H]4O)c4ncccc43)c(F)c2)cn1` (single isomer, unassigned) [Example 59, 1-[[2-fluoro-4-(1-methylpyrazol-4-yl)phenyl]methyl]-N-[(3R,4S) or (3S,4R)-3-hydroxyoxan-4-yl]pyrrolo[3,2-b]pyridine-3-carboxamide], the concentration for a half-maximal effect (EC50) at human M1 stood at 15.5 nM; on M1 receptor, 18 nM.
In the case of `NC(=O)c1ccc(Cn2cc(C(=O)N[C@@H]3CCOC[C@H]3O)c3ncccc32)cc1` (stereo in doubt) [Example 63a, 1-(4-Carbamoylbenzyl)-N-((3S,4R)-3-hydroxytetrahydro-2H-pyran-4-yl)-1H-pyrrolo[3,2-b]pyridine-3-carboxamide], the EC50 was 289 nM on human M1 and 661 nM at M1 receptor.
For the compound `NC(=O)c1ccc(Cn2cc(C(=O)N[C@H]3CCOC[C@@H]3O)c3ncccc32)cc1` (stereo in doubt) [Example 63b, 1-(4-carbamoylbenzyl)-N-((3R,4S)-3-hydroxytetrahydro-2H-pyran-4-yl)-1H-pyrrolo[3,2-b]pyridine-3-carboxamide], the EC50 amounted to 13 nM on human M1 and 47 nM on M1 receptor.
With `O=C(N[C@H]1CCCC[C@@H]1O)c1cn(Cc2cc(Br)ccc2F)c2cccnc12` [Example 1, 1-(5-bromo-2-fluorobenzyl)-N-((1S,2S)-2-hydroxycyclohexyl)-1H-pyrrolo[3,2b]pyridine-3-carboxamide], the half-maximal effective concentration (EC50) on human M1 worked out at 545 nM; at M1 receptor, 1950 nM.
Take `Cn1cc(-c2ccc(Cn3cc(C(=O)N[C@H]4CCCC[C@@H]4O)c4ncccc43)c(F)c2)cn1` [Example 2, 1-(2-fluoro-4-(1-methyl-1H-pyrazol-4-yl)benzyl)-N-((1S,2S)-2-hydroxycyclohexyl)-1H-pyrrolo[3,2-b]pyridine-3-carboxamide]: the concentration for a half-maximal effect (EC50) at human M1 (setting [1]) is 9.86 nM; on M1 receptor (setting [2]), 34.7 nM.
On to `Cn1cc(-c2ccc(Cn3cc(C(=O)N[C@@H]4CCCC[C@H]4O)c4ncccc43)c(F)c2)cn1` [Example 3, 1-(2-fluoro-4-(1-methyl-1H-pyrazol-4-yl)benzyl)-N-((1R,2R)-2-hydroxycyclohexyl)-1H-pyrrolo[3,2-b]pyridine-3-carboxamide], for which the results for the EC50 at human M1 and on M1 receptor were 101 nM and 131 nM, respectively.
For `O=C(N[C@H]1CCCC[C@@H]1O)c1cn(Cc2ccc(Cl)nc2)c2cccnc12` [Example 5, 1-((6-chloropyridin-3-yl)methyl)-N-((1S,2S)-2-hydroxycyclohexyl)-1H-pyrrolo[3,2-b]pyridine-3-carboxamide], in that order: 489 nM and 2320 nM.
As for `Cn1cc(-c2ccc(Cn3nc(C(=O)N[C@H]4CCCC[C@@H]4O)c4ncccc43)c(F)c2)cn1` [Example 6, 1-(2-fluoro-4-(1-methyl-1H-pyrazol-4-yl)benzyl)-N-((1S,2S)-2-hydroxycyclohexyl)-1H-pyrazolo[4,3-b]pyridine-3-carboxamide], the results for the EC50 at human M1 (setting [1]) and at M1 receptor (setting [2]) were 25.3 nM and 71.5 nM, respectively.
Turning to `C[C@@H](CO)NC(=O)c1cn(Cc2ccc(-c3cnn(C)c3)cc2F)c2cccnc12` [Example 8, 1-[2-Fluoro-4-(1-methyl-1H-pyrazol-4-yl)-benzyl]-1H-pyrrolo[3,2-b]pyridine-3-carboxylic acid ((S)-2-hydroxy-1-methyl-ethyl)-amide], the concentration for a half-maximal effect (EC50) stood at 248 nM on human M1 and 695 nM at M1 receptor.
`Cn1cc(-c2ccc(Cn3cc(C(=O)NCC(C)(C)O)c4ncccc43)c(F)c2)cn1` [Example 11, 1-[2-Fluoro-4-(1-methyl-1H-pyrazol-4-yl)-benzyl]-1H-pyrrolo[3,2-b]pyridine-3-carboxylic acid (2-hydroxy-2-methyl-propyl)-amide]: the EC50 came out at 317 nM at human M1 and 616 nM on M1 receptor.
Turning to `CC[C@@H](CO)NC(=O)c1cn(Cc2ccc(-c3cnn(C)c3)cc2F)c2cccnc12` [Example 12, 1-[2-Fluoro-4-(1-methyl-1H-pyrazol-4-yl)-benzyl]-1H-pyrrolo[3,2-b]pyridine-3-carboxylic acid ((S)-1-hydroxymethyl-propyl)-amide], the EC50 was 129 nM on human M1 and 244 nM on M1 receptor.
For `CCC(CO)NC(=O)c1cn(Cc2ccc(-c3cnn(C)c3)cc2F)c2cccnc12` (centres unmarked) [Example 13, 1-[2-Fluoro-4-(1-methyl-1H-pyrazol-4-yl)-benzyl]-1H-pyrrolo[3,2-b]pyridine-3-carboxylic acid (1-hydroxymethyl-propyl)-amide], the EC50 at human M1 stood at 195 nM; at M1 receptor, 632 nM.
Regarding `CCC(O)CNC(=O)c1cn(Cc2ccc(-c3cnn(C)c3)cc2F)c2cccnc12` (centres unmarked) [Example 14, 1-[2-Fluoro-4-(1-methyl-1H-pyrazol-4-yl)-benzyl]-1H-pyrrolo[3,2-b]pyridine-3-carboxylic acid (2-hydroxy-butyl)-amide], the EC50 turned out to be 100 nM at human M1 (setting [1]) and 155 nM on M1 receptor (setting [2]).
As for `Cn1cc(-c2ccc(Cn3cc(C(=O)N[C@H]4CCC[C@@H]4O)c4ncccc43)c(F)c2)cn1` [Example 17, 1-[2-Fluoro-4-(1-methyl-1H-pyrazol-4-yl)-benzyl]-1H-pyrrolo[3,2-b]pyridine-3-carboxylic acid ((1S,2S)-2-hydroxy-cyclopentyl)-amide], the concentration giving a half-maximal response (EC50) at human M1 is 64.9 nM; on M1 receptor, 272 nM.
As to `Cn1cc(-c2ccc(Cn3cc(C(=O)N[C@H]4CCC[C@H]4O)c4ncccc43)c(F)c2)cn1` [Example 18, 1-[2-Fluoro-4-(1-methyl-1H-pyrazol-4-yl)-benzyl]-1H-pyrrolo[3,2-b]pyridine-3-carboxylic acid ((1S,2R)-2-hydroxy-cyclopentyl)-amide], the values for the EC50 at human M1 and at M1 receptor were 96 nM and 195 nM, respectively.
On to `CC(C)[C@@H](CO)NC(=O)c1cn(Cc2ccc(-c3cnn(C)c3)cc2F)c2cccnc12` [Example 19, 1-[2-Fluoro-4-(1-methyl-1H-pyrazol-4-yl)-benzyl]-1H-pyrrolo[3,2-b]pyridine-3-carboxylic acid ((S)-1-hydroxymethyl-2-methyl-propyl)-amide], for which the 50% effective concentration (EC50) on human M1 turned out to be 178 nM; on M1 receptor, 285 nM.
For the compound `CCCC(CO)NC(=O)c1cn(Cc2ccc(-c3cnn(C)c3)cc2F)c2cccnc12` (centres unmarked) [Example 20, 1-[2-Fluoro-4-(1-methyl-1H-pyrazol-4-yl)-benzyl]-1H-pyrrolo[3,2-b]pyridine-3-carboxylic acid (1-hydroxymethyl-butyl)-amide], the EC50 at human M1 was found to be 199 nM; at M1 receptor, 499 nM.
For `CC(C)C(CO)NC(=O)c1cn(Cc2ccc(-c3cnn(C)c3)cc2F)c2cccnc12` (centres unmarked) [Example 22, 1-[2-Fluoro-4-(1-methyl-1H-pyrazol-4-yl)-benzyl]-1H-pyrrolo[3,2-b]pyridine-3-carboxylic acid (1-hydroxymethyl-2-methyl-propyl)-amide], in that order: 183 nM and 381 nM.

The values above are taken from patent US9932335B2 (priority 2013, dated 2018).
